From patent US8951986B2, “Salts of HIV inhibitor compounds” (Gilead Sciences, Inc., priority 2008, dated 2015)

Assays:
HIV-1 BaL = experiment: Anti-HIV-1 activity in activated PBMC, p24 ELISA; type: cell-based; conditions: activated PBMC infected with HIV-1 BaL, 5 days, mean ± SD
Experimental: Activated PBMC were infected with HIV-1 BaL for 3 hours, washed, seeded into 96-well plates (250,000 cells/well) and incubated with serial dilutions of tested compounds for 5 days, at which point cell supernatants were collected and virus production was determined using commercial HIV-1 p24 ELISA (Beckman Coulter, Miami, Fla.).

HIV-1 IIIB = experiment: Anti-HIV-1 activity in MT-2 cells, virus-induced cytopathic effect (CellTiter-Glo); type: cell-based; conditions: MT-2 cells infected with HIV-1 IIIB, 5-day incubation; mean ± SD
Experimental: MT-2 cells were maintained in RPMI-1640 medium supplemented with antibiotics and 10% fetal bovine serum (FBS). MT-2 cells were infected with HIV-1 IIIB at a multiplicity of infection (moi) of 0.01 and added to 96-well plates with serial dilutions of tested compounds at a density of 20,000 cells/well. […] Activity against NRTI-resistant mutants was determined in parallel with wild-type control virus and fold change in EC50 was calculated.

## Nc1ncnc2c1ncn2[C@@H]1O[C@H](OCP(=O)(O)O)C=C1F [Parent Compound]
HIV-1 BaL
  EC50: 8.5 ± 7.7 µM
HIV-1 IIIB
  EC50: 10.6 ± 2.4 µM
